Test results taken from patent publication US20160250238A1, “Method for the Prophylaxis or Treatment of Systemic Lupus Erythematosus and/or Lupus Nephritis” (MILLENNIUM PHARMACEUTICALS, INC., priority 2013, published 2016).
Marks after values point to notes of the source that are not given here.

Key:
anti-KLH IgG = test: ELISA for anti-KLH IgG titer in serum of KLH-immunized rats (rat KLH-TDAR model); format: in vivo, F344 rats; conditions: for Anti-KLH IgG titer: twice weekly for 4 weeks, serum, mean ± SE (n = 10)
Procedure: (§1) F344 rats (male, 7 weeks old) were immunized with KLH plus adjuvant twice at day 0 and day 14. From 8 days after last immunization, rats were administered with vehicle or compound (I) (0.3 mpk, i.v. or 1.5 mpk, p.o.) twice weekly for 4 weeks, then the rats were sacrificed and serum, spleen and bone marrow were collected. All study protocols were approved by TAKEDA Animal Care and Use Committee.
Serum was stored at −80° C. until use. Anti-KLH IgG titer in serum was measured by ELISA (KLH rat IgG ELISA kit, Shibayagi).
(§2) Data represent mean values+s.e.m. (n=10). Student t test was used for statistical analysis (*p<0.05, **p<0.01 vs. control).

[1] = system: anti-KLH antibody producing cells; test: ELISpot assay of anti-KLH IgG-secreting cells from spleen and bone marrow of KLH-immunized rats; format: in vivo, F344 rats; conditions: for The number of anti-KLH IgG-secreting cells, bone marrow / The number of anti-KLH IgG-secreting cells, Spleen: twice weekly for 4 weeks, mean ± SE (n = 10)
Procedure: as §1
Splenocytes and bone marrow cells were collected from spleen and bone marrow. The cells were cultured for 2 hours on 96 well plate pre-coated with KLH (Sigma, H7017-20 MG), then after washing with PBS, the plates were incubated with goat anti-rat IgG, HRP conjugate (Millipore, AP136P) for 1 hour. Anti-KLH antibody producing cells were visualized by adding TMB substrate and the number of anti-KLH antibody producing cells were counted by ELISpot reader system (AID).
as §2

CC(C)C[C@H](NC(=O)CNC(=O)c1cc(Cl)ccc1Cl)B(O)O [Compound (I), [(1R)-1-({[(2,5-dichlorobenzoyl)amino]acetyl}amino)-3-methylbutyl]boronic acid]
Anti-KLH IgG titer (anti-KLH IgG; 0.3 mpk, iv): 509.5 ± 54.4* | Anti-KLH IgG titer (anti-KLH IgG; 1.5 mpk, po): 545.8 ± 67.0* | effect on anti-KLH IgG titer (in words) (anti-KLH IgG; four weeks treatment, 0.3 mpk, i.v. or 1.5 mpk, p.o.): significantly suppressed the anti-KLH IgG titer | The number of anti-KLH IgG-secreting cells, bone marrow ([1]; 0.3 mpk, iv): 103.9 ± 16.9** /3 × 10^5cells | The number of anti-KLH IgG-secreting cells, Spleen ([1]; 0.3 mpk, iv): 37.0 ± 6.8** /1 × 10^6cells | The number of anti-KLH IgG-secreting cells, bone marrow ([1]; 1.5 mpk, po): 156.4 ± 32.0 /3 × 10^5cells | The number of anti-KLH IgG-secreting cells, Spleen ([1]; 1.5 mpk, po): 50.1 ± 12.2* /1 × 10^6cells | effect on the number of anti-KLH IgG-producing cells in spleen and bone marrow (in words) ([1]; four weeks treatment, 0.3 mpk, i.v. or 1.5 mpk, p.o., ELISpot): suppressed the number of anti-KLH IgG-producing cells in spleen and bone marrow
